From patent US20250025443A1, “COMPOUNDS AND METHODS FOR TREATING CORONA VIRUSES” (CLEAR CREEK BIO, INC., priority 2021, published 2025)

Target: SARS-CoV-2 Papain-Like Protease (PLpro) (Severe acute respiratory syndrome coronavirus 2 (2019-nCoV) (SARS-CoV-2), UniProt P0DTD1)
Test: biochemical
Conditions: PLpro enzymatic fluorescence assay; class symbols; read-out: PLpro IC50

Compound | IC50
Cc1nc(Cl)c(-c2cc(C3(NC(=O)c4cc(OC[C@@H]5CCN5C)ccc4C)CC3)c3cccnc3c2)s1 [Compound 812, (S)-N-(1-(7-(4-Chloro-2-methylthiazol-5-yl)quinolin-5-yl)cyclopropyl)-2-methyl-5-((1-methylazetidin-2-yl)methoxy)benzamide] | < 100 nM
C=Cc1cc(C2(NC(=O)c3cc(OC[C@@H]4CCN4C)ccc3C)CC2)c2ccc(C)nc2c1 [Compound 813, (S)-2-Methyl-N-(1-(2-methyl-7-vinylquinolin-5-yl)cyclopropyl)-5-((1-methylazetidin-2-yl)methoxy)benzamide] | < 100 nM
Cc1ncc(-c2cc(C3(NC(=O)c4cc(OC[C@@H]5CCN5C)ccc4C)CC3)c3cccnc3c2Cl)s1 [Compound 814, (S)-N-(1-(8-Chloro-7-(2-methylthiazol-5-yl)quinolin-5-yl)cyclopropyl)-2-methyl-5-((1-methylazetidin-2-yl)methoxy)benzamide] | < 100 nM
Cc1ccc2c(C3(NC(=O)c4cc(OC[C@@H]5CCN5C)ccc4C)CC3)cc(CCC(F)(F)F)cc2n1 [Compound 815, (S)-2-Methyl-N-(1-(2-methyl-7-(3,3,3-trifluoropropyl)quinolin-5-yl)cyclopropyl)-5-((1-methylazetidin-2-yl)methoxy)benzamide] | < 100 nM
Cc1ccc2c(C3(NC(=O)c4cc(OC[C@@H]5CCN5C)ccc4C)CC3)cc(N3CC(F)C3)cc2n1 [Compound 816, (S)—N-(1-(7-(3-Fluoroazetidin-1-yl)-2-methylquinolin-5-yl)cyclopropyl)-2-methyl-5-((1-methylazetidin-2-yl)methoxy)benzamide] | < 100 nM
COc1cc(C2(NC(=O)c3cc(OC[C@@H]4CCN4C)ccc3C)CC2)c2ccc(C(F)(F)F)nc2c1 [Compound 817, (S)-N-(1-(7-Methoxy-2-(trifluoromethyl)quinolin-5-yl)cyclopropyl)-2-methyl-5-((1-methylazetidin-2-yl)methoxy)benzamide] | < 100 nM
Cc1ccc(OC[C@@H]2CCN2C)cc1C(=O)NC1(c2cc(N(C)S(C)(=O)=O)cc3ncccc23)CC1 [Compound 818, (S)-2-Methyl-5-((1-methylazetidin-2-yl)methoxy)-N-(1-(7-(N-methylmethylsulfonamido)quinolin-5-yl)cyclopropyl)benzamide] | < 100 nM
Cc1ccc2c(C3(NC(=O)c4cc(OC[C@@H]5CCN5C)ccc4C)CC3)cc(N(C)S(C)(=O)=O)cc2n1 [Compound 819, (S)-2-Methyl-N-(1-(2-methyl-7-(N-methylmethylsulfonamido)quinolin-5-yl)cyclopropyl)-5-((1-methylazetidin-2-yl)methoxy)benzamide] | < 100 nM
CC(=O)c1ccc(-c2cc(C3(NC(=O)c4cc(OC[C@@H]5CCN5C)ccc4C)COC3)c3cccnc3c2)s1 [Compound 821, (S)-N-(3-(7-(5-Acetylthiophen-2-yl)quinolin-5-yl)oxetan-3-yl)-2-methyl-5-((1-methylazetidin-2-yl)methoxy)benzamide] | < 100 nM
Cc1ccc2c(C3(NC(=O)c4cc(OC[C@@H]5CCN5C)ccc4C)CC3)cc(OCF)cc2n1 [Compound 823, (S)—N-(1-(7-(Fluoromethoxy)-2-methylquinolin-5-yl)cyclopropyl)-2-methyl-5-((1-methylazetidin-2-yl)methoxy)benzamide] | < 100 nM
CC#Cc1cc(C2(NC(=O)c3cc(OC[C@@H]4CCN4C)ccc3C)CC2)c2ccc(C)nc2c1 [Compound 824, (S)-2-Methyl-N-(1-(2-methyl-7-(prop-1-yn-1-yl)quinolin-5-yl)cyclopropyl)-5-((1-methylazetidin-2-yl)methoxy)benzamide] | < 100 nM
Cc1ccc2c(C3(NC(=O)c4cc(OC[C@@H]5CCN5C)ccc4C)CC3)cc(NS(C)(=O)=O)cc2n1 [Compound 825, (S)-2-Methyl-N-(1-(2-methyl-7-(methylsulfonamido)quinolin-5-yl)cyclopropyl)-5-((1-methylazetidin-2-yl)methoxy)benzamide] | < 100 nM
